Reference: the NIST ThermoML archive (doi:10.1016/j.jct.2005.11.012)

Key:
[1] = 101 kPa, Liquid
[2] = refractive index (Na D-line) (dimensionless); conditions: 101.33 kPa, Liquid
[3] = xn = mol fraction of the nth substance listed; conditions: 101 kPa, Liquid
[4] = refractive index (Na D-line) (dimensionless); xn = mol fraction of the nth substance listed; conditions: 101 kPa, Liquid

BrC(Br)C(Br)Br [1,1,2,2-tetrabromoethane]
Conditions	mass density, [1] [kg/m3]	refractive index, [2]
293.15 K	2963.2	1.63535
303.15 K	2939.86	1.62926

BrC(Br)C(Br)Br [1,1,2,2-tetrabromoethane] + CCCCCCCCCCO
Conditions	mass density, [3] [kg/m3]	refractive index, [4]
293.15 K, x1 = 0.1023	968.19	1.44929
293.15 K, x1 = 0.202	1114.37	1.46226
293.15 K, x1 = 0.3012	1272.36	1.47639
293.15 K, x1 = 0.4012	1446.62	1.49207
293.15 K, x1 = 0.5007	1636.66	1.50944
293.15 K, x1 = 0.6006	1847.04	1.52888
293.15 K, x1 = 0.7011	2081.74	1.55057
293.15 K, x1 = 0.8006	2340.68	1.57518
293.15 K, x1 = 0.9006	2632.79	1.60321
293.15 K, x1 = 1	2963.2	1.63535
303.15 K, x1 = 0.1023	960.09	1.44494
303.15 K, x1 = 0.202	1104.97	1.45758
303.15 K, x1 = 0.3012	1261.57	1.47147
303.15 K, x1 = 0.4012	1434.34	1.48697
303.15 K, x1 = 0.5007	1622.78	1.50399
303.15 K, x1 = 0.6006	1831.45	1.52315
303.15 K, x1 = 0.7011	2064.32	1.54493
303.15 K, x1 = 0.8006	2321.36	1.56925
303.15 K, x1 = 0.9006	2611.47	1.59716
303.15 K, x1 = 1	2939.86	1.62926

BrC(Br)C(Br)Br [1,1,2,2-tetrabromoethane] + CCCCCCCCO
Conditions	mass density, [3] [kg/m3]	refractive index, [4]
293.15 K, x1 = 0.101	989.26	1.44433
293.15 K, x1 = 0.2013	1161.15	1.45995
293.15 K, x1 = 0.2997	1338.99	1.47641
293.15 K, x1 = 0.3994	1529.17	1.49411
293.15 K, x1 = 0.5002	1732.98	1.51358
293.15 K, x1 = 0.6003	1947.95	1.53421
293.15 K, x1 = 0.6998	2175.4	1.55634
293.15 K, x1 = 0.7998	2419.28	1.58047
293.15 K, x1 = 0.9011	2684.42	1.60696
293.15 K, x1 = 1	2963.2	1.63535
303.15 K, x1 = 0.101	980.93	1.44015
303.15 K, x1 = 0.2013	1151.32	1.45566
303.15 K, x1 = 0.2997	1327.63	1.4717
303.15 K, x1 = 0.3994	1516.19	1.48929
303.15 K, x1 = 0.5002	1718.29	1.50826
303.15 K, x1 = 0.6003	1931.52	1.52869
303.15 K, x1 = 0.6998	2157.22	1.55075
303.15 K, x1 = 0.7998	2399.36	1.57464
303.15 K, x1 = 0.9011	2662.77	1.60101
303.15 K, x1 = 1	2939.86	1.62926

BrC(Br)C(Br)Br [1,1,2,2-tetrabromoethane] + CCCCCCCO
Conditions	mass density, [3] [kg/m3]	refractive index, [4]
293.15 K, x1 = 0.099	1001.11	1.44056
293.15 K, x1 = 0.1999	1189.38	1.45821
293.15 K, x1 = 0.3001	1383.2	1.47658
293.15 K, x1 = 0.3995	1582.25	1.49566
293.15 K, x1 = 0.5006	1792.24	1.51595
293.15 K, x1 = 0.5987	2003.6	1.5368
293.15 K, x1 = 0.6993	2229.07	1.55935
293.15 K, x1 = 0.799	2461.79	1.58311
293.15 K, x1 = 0.8992	2706	1.60832
293.15 K, x1 = 1	2963.2	1.63535
303.15 K, x1 = 0.099	992.57	1.43619
303.15 K, x1 = 0.1999	1179.18	1.45352
303.15 K, x1 = 0.3001	1371.29	1.47156
303.15 K, x1 = 0.3995	1568.62	1.49038
303.15 K, x1 = 0.5006	1776.88	1.51053
303.15 K, x1 = 0.5987	1986.59	1.53124
303.15 K, x1 = 0.6993	2210.42	1.55368
303.15 K, x1 = 0.799	2441.56	1.57727
303.15 K, x1 = 0.8992	2684.21	1.60236
303.15 K, x1 = 1	2939.86	1.62926
